Results from patent US5095038A, “Carbocyclic compounds useful as leukotriene antagonists” (ICI Americas Inc., priority 1989, dated 1992).

Target: T1, LTD4 /E4 receptors (Cavia porcellus, UniProt Q2NNR5)
T1 construct: membrane fractions, containing the LTD4 /E4 receptors, are prepared from guinea-pig lung parenchyma; from tissue; host or cells: guinea-pig lung parenchyma membrane fractions
T1 sequence (Q2NNR5 1-340): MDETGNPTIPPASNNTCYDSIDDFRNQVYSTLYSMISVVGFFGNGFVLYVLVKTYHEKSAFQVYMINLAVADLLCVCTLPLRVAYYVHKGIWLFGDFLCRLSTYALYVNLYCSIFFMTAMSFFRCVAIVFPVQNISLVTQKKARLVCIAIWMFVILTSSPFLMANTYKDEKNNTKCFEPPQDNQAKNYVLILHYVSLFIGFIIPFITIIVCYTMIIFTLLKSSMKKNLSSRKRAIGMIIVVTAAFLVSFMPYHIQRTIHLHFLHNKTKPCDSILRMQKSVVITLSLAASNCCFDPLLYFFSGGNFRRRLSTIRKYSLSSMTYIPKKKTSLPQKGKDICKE
Test: receptor-ligand binding assay (3H-LTD4)
Conditions: membrane fractions from guinea-pig lung parenchyma, 1nM 3H-LTD4, 30 minutes at 22° C.; Ki from IC50 by Cheng-Prusoff
Description: According to this procedure, membrane fractions, containing the LTD4 /E4 receptors, are prepared from guinea-pig lung parenchyma and incubated for 30 minutes at 22° C. with 1nM ^3 H-LTD4 in the absence or presence of tested antagonist. Specific binding, determined under conditions that prevent enzymatic metabolism of ^3 H-LTD4, is the net result of total ^3 H-LTD4 binding minus nonspecific binding determined in the presence of 1-2000 fold excess unlabelled LTD . Each assay is done in duplicate and results (Ki values) are typically a mean of several such determinations in individual receptor batches.
The % inhibition by a tested antagonist, relative to control binding (vehicle alone), is expressed as a fraction of log[antagonist] concentration (in molar units) and the half-maximal inhibition (IC50) determined by computerized non-linear least-square analysis. The binding constant (Ki) is then calculated from IC50 by the Cheng-Prusoff equation: [formula] where [L] is ^3 H-LTD4 concentraton and Kd is the affinity constant of LTD4 to this receptor, determined separately for each batch. (Biochem. Pharmacol. 22: 3099-3108, 1973).

`CCC(C)CNC(=O)c1ccc2cccc(Cc3ccc(C(=O)NS(=O)(=O)c4ccccc4C)cc3OC)c2c1` (stereo not shown) [Example 10, 3-Methoxy-4-[7-(2-methylbutylcarbamoyl)naphth-1-ylmethyl]-N-(2-methylphenylsulfonyl)benzamide] was tested, and the Ki was 3.16 nM.
